From publication PMC5760531, “Action Potential Recording and Pro-arrhythmia Risk Analysis in Human Ventricular Trabeculae” (Frontiers in Physiology, 2018)

Key:
[1] = human free (unbound) effective therapeutic plasma concentration used to calculate multiples; cited from earlier work
[2] = tested on: human ventricular trabeculae; assay: Action potential recording and pro-arrhythmic score analysis in human ventricular trabeculae (hVT); conditions: 1Hz; for Beat Escape (raw data) / EADs (raw data) / Refractoriness Escape (raw data): n=4 trabeculae;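 for all read-outs here: sharp microelectrode action potential recordings at 37°C in Tyrode-perfused trabeculae, 4 cumulative concentrations each applied 31 min, values averaged over last 30 APs, vehicle 0.1% DMSO as control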
Description: Briefly, the human heart was transferred into a dissection vessel containing a cold (4°C), fresh proprietary dissection solution. The heart was maintained completely submerged in dissection solution. Ventricular trabeculae were dissected and transferred to the recording chamber.
Briefly, a single tissue was mounted into the experimental chamber filled with oxygenated Tyrode's external solution. The temperature of the solution was maintained at 37°C with flow rate at 5 mL per minute. The tissue was allowed to equilibrate for 30–60 min with stimulation (3 V, 3 ms) at a frequency of 1.0 Hz. High impedance borosilicate microelectrodes were prepared with a tip resistance of 10–20 MΩ once filled with 3 M KCl. Upon tissue impalement, the membrane potential was allowed to stabilize (typically, around −85 mV). Tissues with resting membrane potentials more positive than −75 mV were rejected. Bipolar stimulation at 1.5x threshold was applied and recordings were performed in continuous mode with sampling at 20 kHz using ADInstruments and LabChart Software.
Interruption of perfusion/oxygenation; (2). Absence of Aps following stimulation at baseline; (3). Time frame of drug exposure not respected; (4). Unstable response to stimulation at baseline; (5). Resting membrane potential (RMP) > −75 mV; 7). Maximal amplitude of AP (AMAX) <70 mV; 8). AP duration at 90% repolarization (APD90) <200 ms or >450 ms.
Experimental Procedure: Each test article was evaluated at 4 concentrations in 4 ventricular trabeculae derived from a minimum of 2 donor hearts. Testing concentrations were chosen based upon human free ETPC, aiming to cover 1–100-fold of human free ETPC. […] Briefly, following stabilization of each tissue, APs were collected and assessed for 31 min in vehicle control solution (Tyrode with 0.1% DMSO) at stimulation frequencies of 1 Hz for 25 min, 2 Hz for 3 min and then 1 Hz for 3 min. Following this vehicle control period, 4 concentrations of a test compound were applied sequentially and cumulatively. Each concentration was applied for 31 min with the same stimulation sequence as in vehicle controls.
For each frequency tested, the last 30 APs acquired at the end of the period were averaged for vehicle controls and for each test article concentration. Analysis at 1 Hz included only the last 30 APs of the initial 25-min incubation period. The following AP parameters and pro-arrhythmia variables were analyzed offline upon the completion of recordings:
• RMP (mV) • AMAX (mV) • AP duration at percent repolarization (APD20, APD30, APD50, APD60, APD90) (ms) • Short term variability analysis of AP duration (STV): Beat-to-beat variability of repolarization was quantified as STV from APD90 Poincare plots over a period of 30 sec.
Compound effects were quantified relative to the data collected during the vehicle control period (see Figure 1). […] Additionally, based on AnaBios historical data, threshold values for changes over baseline control for AP instability, APD alternans, Maximum APD dispersion and ERP (APD) were based upon an effect level of 10%. When applicable, differences were tested for statistical significance using the unpaired Student's t-test. A value of P < 0.05 was considered significant.
AP parameters and pro-arrhythmia variables were combined into a meaningful, single score to assess the pro-arrhythmic risk of a compound at each concentration tested. The pro-arrhythmic potential of compounds at 1 or 2 Hz was determined by assigning a weighted scale to each variable (Table 1).

## Cc1cccc(C)c1OCC(C)N (stereo not drawn) [MEXILETINE, Mexiletine]
[1]
  Free ETPC: 4.1 µM
[2]; 0.7-FOLD free ETPC (4.1µM)
  AMAX (average raw data): 111
  AMAX percentage change compared to vehicle control: 0%
  APD30 (average raw data): 174
  APD30 percentage change compared to vehicle control: -5%
  APD50 (average raw data): 231
  APD50 percentage change compared to vehicle control: -3%
  APD90 (average raw data): 321
  APD90 percentage change compared to vehicle control: -1%
  Alternans (average raw data): 0.72
  Alternans percentage change compared to vehicle control: 7%
  Beat Escape percentage change compared to vehicle control: 25%
  EADs percentage change compared to vehicle control: 0%
  ERP (average raw data): 0.43
  ERP percentage change compared to vehicle control: 1%
  Max Dispersion (average raw data): 3.75
  Max Dispersion percentage change compared to vehicle control: 0%
  RMP (average raw data): -91
  RMP percentage change compared to vehicle control: 1%
  Refractoriness Escape percentage change compared to vehicle control: 0%
  STV (average raw data): 0.51
  STV percentage change compared to vehicle control: 1%
  Triangulation (average raw data): 147
  Triangulation percentage change compared to vehicle control: 4%
  Beat Escape (raw data): 1
  EADs (raw data): 0
  Refractoriness Escape (raw data): 0
[2]; 7-FOLD free ETPC (4.1µM)
  AMAX (average raw data): 109
  AMAX percentage change compared to vehicle control: -3%
  APD30 (average raw data): 158
  APD30 percentage change compared to vehicle control: -13%
  APD50 (average raw data): 206
  APD50 percentage change compared to vehicle control: -14%
  APD90 (average raw data): 297
  APD90 percentage change compared to vehicle control: -8%
  Alternans (average raw data): 0.68
  Alternans percentage change compared to vehicle control: 0%
  Beat Escape percentage change compared to vehicle control: 25%
  EADs percentage change compared to vehicle control: 0%
  ERP (average raw data): 0.41
  ERP percentage change compared to vehicle control: -5%
  Max Dispersion (average raw data): 2.82
  Max Dispersion percentage change compared to vehicle control: -25%
  RMP (average raw data): -91
  RMP percentage change compared to vehicle control: 1%
  Refractoriness Escape percentage change compared to vehicle control: 0%
  STV (average raw data): 0.49
  STV percentage change compared to vehicle control: -3%
  Triangulation (average raw data): 140
  Triangulation percentage change compared to vehicle control: -1%
  Beat Escape (raw data): 1
  EADs (raw data): 0
  Refractoriness Escape (raw data): 0
[2]; 24-FOLD free ETPC (4.1µM)
  AMAX (average raw data): 102
  AMAX percentage change compared to vehicle control: -9%
  APD30 (average raw data): 137
  APD30 percentage change compared to vehicle control: -25%
  APD50 (average raw data): 180
  APD50 percentage change compared to vehicle control: -25%
  APD90 (average raw data): 282
  APD90 percentage change compared to vehicle control: -13%
  Alternans (average raw data): 17.51
  Alternans percentage change compared to vehicle control: 2481%
  Beat Escape percentage change compared to vehicle control: 75%
  EADs percentage change compared to vehicle control: 0%
  ERP (average raw data): 0.39
  ERP percentage change compared to vehicle control: -8%
  Max Dispersion (average raw data): 50.33
  Max Dispersion percentage change compared to vehicle control: 1242%
  RMP (average raw data): -89
  RMP percentage change compared to vehicle control: -1%
  Refractoriness Escape percentage change compared to vehicle control: 0%
  STV (average raw data): 12.96
  STV percentage change compared to vehicle control: 2873%
  Triangulation (average raw data): 145
  Triangulation percentage change compared to vehicle control: 3%
  Beat Escape (raw data): 3
  EADs (raw data): 0
  Refractoriness Escape (raw data): 0
[2]; 73-FOLD free ETPC (4.1µM)
  AMAX (average raw data): 86
  AMAX percentage change compared to vehicle control: -22%
  APD30 (average raw data): 120
  APD30 percentage change compared to vehicle control: -27%
  APD50 (average raw data): 165
  APD50 percentage change compared to vehicle control: -27%
  APD90 (average raw data): 277
  APD90 percentage change compared to vehicle control: -9%
  Alternans (average raw data): 2.53
  Alternans percentage change compared to vehicle control: 272%
  EADs percentage change compared to vehicle control: 0%
  ERP (average raw data): 0.42
  ERP percentage change compared to vehicle control: -1%
  Max Dispersion (average raw data): 6.30
  Max Dispersion percentage change compared to vehicle control: 68%
  RMP (average raw data): -76
  RMP percentage change compared to vehicle control: -13%
  Refractoriness Escape percentage change compared to vehicle control: 0%
  STV (average raw data): 1.74
  STV percentage change compared to vehicle control: 182%
  Triangulation (average raw data): 157
  Triangulation percentage change compared to vehicle control: 12%
  Beat Escape (raw data): 1
